In brackets after ≈: the same amount, converted by molar mass. Several values for one entry are separate records, joined by “and”; a condition that tells them apart may be missing. Equal values may be shown once. Entries after “also recorded” stand apart in the source; their conditions may differ. Read-outs that look alike come from different tables or passages of the source.
Key:
lymphoid leukemia L1210 [1] = settings: L1210 system, prior/literature; cited from earlier work
lymphoid leukemia L1210 [2] = assay: Intraperitoneal (IP) lymphoid leukemia L1210 transplanted mouse tumor test; type: in vivo, murine; settings: for antitumor activity: IP L1210, tetraaminobenzoquinone series (Table VIII); for animals alive per 6 test animals on day of termination / survivors (number in parentheses) IP L1210: day 30; for ILS (%) IP L1210 / survivors (number in parentheses) IP L1210: Table XI; for ILS (%) IP L1210: outstanding activity; for survivors (number in parentheses) IP L1210: per 6 test animals
Excerpt: ^(a) Day 1-9 treatment schedule (9 injections)
^(b) Day 1,5,9 treatment schedule (3 injections)
^(c) Day 1 only treatment schedule (1 injection)
^(f) Percentage increase in life span of treated animals [(treated
survival .div. control survival) × 100%] - 100%

[3] = system: P388 lymphocytic leukemia; assay: Intraperitoneal (IP) lymphocytic leukemia P388 transplanted mouse tumor test; type: in vivo, murine; settings: for OD (optimum dose): IP P388, QD1-9
B16 melanocarcinoma = assay: Intraperitoneal B16 melanocarcinoma transplanted mouse tumor test; type: in vivo, murine; settings: for OD (optimum dose) / ILS (percentage increase in life span): Table IX; for OD (optimum dose): B16, QD1-9; for ILS (percentage increase in life span): B16, QD1-9, at OD; for antitumor activity: B16 melanoma
lymphoid leukemia L1210 [4] = assay: Intracerebral (IC) lymphoid leukemia L1210 test; type: in vivo, murine; settings: for OD (optimum dose) / ILS (percentage increase in life span): Table X; for antitumor activity: IC L1210; for ILS (%) IC L1210: Table XI, outstanding activity
ependymoblastoma = assay: Intracerebral (IC) ependymoblastoma (EM) brain tumor test; type: in vivo, murine; settings: for antitumor activity: IC ependymoblastoma (EM); for OD (optimum dose) / ILS (percentage increase in life span) / animals alive per 6 test animals on day of termination: Table X, IC ependymoblastoma; for OD (optimum dose): QD1-5; for ILS (percentage increase in life span) / animals alive per 6 test animals on day of termination: QD1-5, at OD; for animals alive per 6 test animals on day of termination / survivors (number in parentheses) EM: day 60; for survivors (number in parentheses) EM: per 6 test animals
Excerpt: ^c Ic tumor implantation, ip QD1-5 treatment schedule.
^g Number of animals alive per six test animals on day of termination
of experiment (day 99 for expt 133 and day 60 for expt 136 and 144).
A third IC transplanted mouse tumor model, the ependymoblastoma system, was also studied. This system requires intracerebral implantation of a solid tumor fragment while the IC L1210 and IC P388 systems utilize IC inoculated ascites tumor fluid. All three use IP drug treatment however. […] Cures (survivors from the group of six mice on the last day of the experiment) are indicated. Experiments 136 and 144 were terminated on day 60. Since the number of cures was about the same, the differences in T/C values in these two experiments reflect differences in the life span of the two different sets of control animals. Experiment 133 was terminated on day 99 with a resulting higher activity value.
The hydrophilic dihydroxypropylamino compound (No. 39), which was curative in the IP L1210 and P388 leukemia systems, was active but gave a large spread in ILS values (53-186%). […] Again, its hydrophilic character may present transport problems in this IC tumor system.

[5] = Room temperature water solubility; type: physicochemical
Method: In the following examples, all melting points are uncorrected and were recorded on a Thomas-Hoover capillary melting point apparatus. Elemental analyses were performed by NIAMDD, NIH, Bethesda, Maryland. Fluoranil, ethyleneimine and 2l -methylethyleneimine were obtained commerically. […] New compounds were identified by nmr and ir spectroscopy. In the tetraamino derivatives, the methylene protons of the aziridine rings usually occurred as a singlet at δ2.0-2.2 in CDCl3 or DMSO-d6. This absorption appeared at δ2.40 (CDCl3) for compound 11. Carbonyl absorption frequencies (nujol mull) occurred in the range 1620-1640 cm^-1 for the tetraamino compounds. Satisfactory elemental analyses (+0.4% of calculated values) are indicated by elemental symbols in Table VII. Room temperature water solubilities were determined by the incremental addition (pipet) of water to a weighed amount of compound with shaking. The solubility values in Table VII must be considered as approximate.

[6] = Table VIII, IP L1210, Day 1 only (1 injection)
[7] = Table VIII, IP L1210, Day 1 only, at OD
[8] = Table VIII, IP L1210, Q4D(1,5,9) (3 injections)
[9] = Table VIII, IP L1210, Q4D(1,5,9), at OD
[10] = Table VIII, IP L1210, QD1-9 (9 injections)
[11] = Table VIII, IP L1210, QD1-9, at OD
[12] = Table IX, IP P388, QD1-9, at OD
[13] = water, Table VII, room temperature, approximate, read-out: Approx. H2O Sol.

Compound	antitumor activity, prior testing (lymphoid leukemia L1210 [1])	OD (optimum dose) (lymphoid leukemia L1210 [2]; [6])	ILS (percentage increase in life span) (lymphoid leukemia L1210 [2]; [7])	OD (optimum dose) (lymphoid leukemia L1210 [2]; [8])	ILS (percentage increase in life span) (lymphoid leukemia L1210 [2]; [9])	OD (optimum dose) (lymphoid leukemia L1210 [2]; [10])	ILS (percentage increase in life span) (lymphoid leukemia L1210 [2]; [11])	ILS (percentage increase in life span) [3, 12]	OD (optimum dose) (B16 melanocarcinoma)	ILS (percentage increase in life span) (B16 melanocarcinoma)	ILS (percentage increase in life span) (lymphoid leukemia L1210 [4]; IC L1210, QD1-9, at OD)	antitumor activity (ependymoblastoma)	OD (optimum dose) (ependymoblastoma)	ILS (percentage increase in life span) (ependymoblastoma)	animals alive per 6 test animals on day of termination (ependymoblastoma)	survivors (number in parentheses) EM (ependymoblastoma; Table XI)	solubility [5, 13] [µg/mL]	OD (optimum dose) ([3]; Table IX)	other results
COC1=C(Br)C(=O)C(OC)=C(Br)C1=O [Compound 14, 2,5-dibromo-3,6-dimethoxy-1,4-benzoquinone]	inactive	–	–	–	–	–	–	–	–	–	–	–	–	–	–	–	–	–	–
CCNC1=C(N2CC2)C(=O)C(NCC)=C(N2CC2)C1=O [Compound 35, 2,5-Diaziridinyl-3,6-bis(ethylamino)-1,4-benzoquinone]	–	1.5 mg/kg/injection	68% and 54%	3.0 mg/kg/injection and 1.5 mg/kg/injection	75% and 57%	1.5 mg/kg/injection	112% and 91%	160% and 103%	0.4 mg/kg/injection and 0.7 mg/kg/injection	26% and 24%	44% and 40%	most active	1.5 mg/kg/injection	218% and 187%	2	2	500 (≈ 1810 µM)	–	antitumor activity (lymphoid leukemia L1210 [2]): activity appears to peak; T - C (average weight change of test group minus control) (lymphoid leukemia L1210 [2]; Table VIII, IP L1210, QD1-9, at OD, day 5): -3.3 grams; animals alive per 6 test animals on day of termination (lymphoid leukemia L1210 [2]; [11]): 2 and 1; ILS (%) IP L1210 (lymphoid leukemia L1210 [2]): 112%; survivors (number in parentheses) IP L1210 (lymphoid leukemia L1210 [2]): 2; OD (optimum dose) (lymphoid leukemia L1210 [4]; IC L1210, QD1-9): 3.0 mg/kg/injection
CC(=O)NC1=C(N2CC2)C(=O)C(NC(C)=O)=C(N2CC2)C1=O [Compound 27]	active; also recorded: intraperitoneal (IP) leukemia L1210 activity	–	–	–	–	–	–	–	–	–	–	–	–	–	–	–	–	–	–
O=C1C(Cl)=C(Cl)C(=O)C(Cl)=C1Cl [chloranil, tetrachlorobenzoquinone]	inactive	–	–	–	–	–	–	–	–	–	–	–	–	–	–	–	–	–	–
NC1=C(Cl)C(=O)C(N)=C(Cl)C1=O [Compound 19]	inactive	–	–	–	–	–	–	–	–	–	–	–	–	–	–	–	–	–	–
CN(C)C1=C(N2CC2)C(=O)C(N(C)C)=C(N2CC2)C1=O [Compound 41, 2,5-Diaziridinyl-3,6-bis(dimethylamino)-1,4-benzoquinone]	–	1.5 mg/kg/injection	21% and 15%	3.0 mg/kg/injection	120% and 73%	–	–	74% and 37%	0.2 mg/kg/injection	16% and 12%	–	among the most active materials	1.0 mg/kg/injection and 0.5 mg/kg/injection	215% and 190%	5 and 4	5	10000 (≈ 36200 µM)	1.0 mg/kg/injection and 0.5 mg/kg/injection	animals alive per 6 test animals on day of termination (lymphoid leukemia L1210 [2]; [9]): 1; ILS (%) IP L1210 (lymphoid leukemia L1210 [2]): 120%; survivors (number in parentheses) IP L1210 (lymphoid leukemia L1210 [2]): 1; antitumor activity (lymphoid leukemia L1210 [4]): most active; also recorded: significant activity; OD (optimum dose) (lymphoid leukemia L1210 [4]; IC L1210, Q4D(1,5,9)): 3.0 mg/kg/injection; ILS (percentage increase in life span) (lymphoid leukemia L1210 [4]; IC L1210, Q4D(1,5,9), at OD): 72% and 56%; ILS (%) IC L1210 (lymphoid leukemia L1210 [4]): 72%; solubility [5]: increases the solubility greatly
NC(=O)CNC1=C(N2CC2)C(=O)C(NCC(N)=O)=C(N2CC2)C1=O [Compound 40]	–	10.0 mg/kg/injection	21% and 15%	8.0 mg/kg/injection	–	10.0 mg/kg/injection	92% and 91%	85% and 71%	–	37% and 22%	16%	–	2.0 mg/kg/injection and 1.0 mg/kg/injection	64% and 50%	–	–	500 (≈ 1500 µM)	2.0 mg/kg/injection	–
CNC1=C(N2CC2C)C(=O)C(NC)=C(N2CC2C)C1=O (stereo not drawn) [Compound 26]	–	5.0 mg/kg/injection and 10.0 mg/kg/injection	42% and 39%	12.5 mg/kg/injection	93% and 52%	5.0 mg/kg/injection	69% and 37%	–	5.0 mg/kg/injection	70% and 48%	39% and 25%	highly active	10.0 mg/kg/injection and 5.0 mg/kg/injection	–	1	1	< 100	–	antitumor activity (B16 melanocarcinoma): active; ILS (%) B16 (B16 melanocarcinoma; Table XI, outstanding activity): 70%; OD (optimum dose) (lymphoid leukemia L1210 [4]; IC L1210, QD1-9): 5.0 mg/kg/injection and 10.0 mg/kg/injection; ILS (%) EM (ependymoblastoma; Table XI, outstanding activity): 294%
CCCCNC1=C(N2CC2)C(=O)C(NCCCC)=C(N2CC2)C1=O [Compound 37]	–	10.0 mg/kg/injection	11% and 5%	12.5 mg/kg/injection and 8.2 mg/kg/injection	44% and 25%	10.0 mg/kg/injection and 5.0 mg/kg/injection	36% and 30%	64% and 49%	10.0 mg/kg/injection and 5.0 mg/kg/injection	–	–	has activity	6.0 mg/kg/injection and 3.0 mg/kg/injection	–	–	–	< 100	5.0 mg/kg/injection and 10.0 mg/kg/injection	antitumor activity (lymphoid leukemia L1210 [2]): significant reduction in activity
CCCNC1=C(N2CC2)C(=O)C(NCCC)=C(N2CC2)C1=O [Compound 36]	–	–	–	6.2 mg/kg/injection	28% and 25%	6.2 mg/kg/injection	48% and 43%	151% and 108%	5.0 mg/kg/injection	36% and 32%	–	highly active; also recorded: still very active; also recorded: most active	10.0 mg/kg/injection and 5.0 mg/kg/injection	259% and 143%	2 and 1	2	< 100	6.0 mg/kg/injection	antitumor activity (lymphoid leukemia L1210 [2]): significant reduction in activity; animals alive per 6 test animals on day of termination ([3]; Table IX, IP P388, QD1-9, at OD, day 30): 2; survivors (number in parentheses) P388 ([3]; Table XI, per 6 test animals, day 30): 2
CNC1=C(N2CC2)C(=O)C(NC)=C(N2CC2)C1=O [Compound 34]	–	0.7 mg/kg/injection	–	0.8 mg/kg/injection and 0.4 mg/kg/injection	–	0.2 mg/kg/injection	–	95% and 69%	–	39% and 29%	68% and 60%	among the most active materials; also recorded: highly active	0.2 mg/kg/injection and 0.4 mg/kg/injection	219% and 218%	5 and 4	5	< 100	0.2 mg/kg/injection and 0.1 mg/kg/injection	animals alive per 6 test animals on day of termination (lymphoid leukemia L1210 [2]; [11]): 1; antitumor activity (B16 melanocarcinoma): approached minimal reproducible activity; antitumor activity (lymphoid leukemia L1210 [4]): most active; also recorded: significant activity; OD (optimum dose) (lymphoid leukemia L1210 [4]; IC L1210, QD1-9): 0.4 mg/kg/injection and 0.2 mg/kg/injection; ILS (%) IC L1210 (lymphoid leukemia L1210 [4]): 68%

— patent publication US4146622A, “Aziridinyl quinone anti-transplanted tumor agents” (priority 1977, dated 1979)
